In paper PMC11740726 (PNAS Nexus, 2025):
Where “and” joins values, the source holds several entries; their conditions need not be identical. Equal entries are not always repeated. Where two headings read alike, the source gives them in different places.

How the values were obtained:
[1] = system: SARS-CoV-2 Omicron BA.5; assay: microbe, parasite or virus in culture; assay type: cell-based; conditions: Severe acute respiratory syndrome coronavirus 2, read-out: Against SARS-CoV-2 variants EC50, Omicron BA.5
[2] = system: SARS-CoV-2 Omicron EG.5.1; assay: microbe, parasite or virus in culture; assay type: cell-based; conditions: Severe acute respiratory syndrome coronavirus 2, read-out: Against SARS-CoV-2 variants EC50, Omicron EG.5.1
[3] = system: SARS-CoV-2^BQ.1.1; assay: microbe, parasite or virus in culture; assay type: cell-based; conditions: Severe acute respiratory syndrome coronavirus 2, read-out: Against SARS-CoV-2 variants EC50, Omicron BQ.1.1
[4] = system: SARS-CoV-2 Omicron XBB.1.5; assay: microbe, parasite or virus in culture; assay type: cell-based; conditions: Severe acute respiratory syndrome coronavirus 2, read-out: Against SARS-CoV-2 variants EC50, Omicron XBB.1.5
[5] = system: SARS-CoV-2^E166V-P14; assay type: cell-based; conditions: read-out: EC50, SARS-CoV-2^E166V-P14, VeroE6 +2μM CP-100356
[6] = system: SARS-CoV-2 Omicron BA.2.75; assay: microbe, parasite or virus in culture; assay type: cell-based; conditions: Severe acute respiratory syndrome coronavirus 2, read-out: Against SARS-CoV-2 variants EC50, Omicron BA.2.75
[7] = system: six various Omicron variants (BA.5, BA.2.75, BQ.1.1, XBB, XBB.1.5, and EG.5.1); assay: microbe, parasite or virus in culture; assay type: cell-based, SARS-CoV-2; conditions: Severe acute respiratory syndrome coronavirus 2, read-out: EC50 values ranging over all six Omicron variants
[8] = system: SARS-CoV-2 Omicron XBB; assay: microbe, parasite or virus in culture; assay type: cell-based; conditions: Severe acute respiratory syndrome coronavirus 2, read-out: Against SARS-CoV-2 variants EC50, Omicron XBB
[9] = system: rgSARS-CoV-2^WT; assay: microbe, parasite or virus in culture; assay type: cell-based; conditions: Severe acute respiratory syndrome coronavirus 2, Vero C1008, read-out: EC50, rgSARS-CoV-2^WT, VeroE6 +2μM CP-100356
[10] = system: SARS-CoV-2^E166V-P14; assay type: cell-based; conditions: read-out: EC50, SARS-CoV-2^E166V-P14, HeLa^hACE2-TMPRSS2
[11] = system: rgSARS-CoV-2^E166V; assay type: cell-based, SARS-CoV-2; conditions: read-out: EC50, rgSARS-CoV-2^E166V, VeroE6 +2μM CP-100356

Compound | EC50 [1] | EC50 [2] | EC50 [3] | EC50 [4] | EC50 [5] | EC50 [6] | EC50 [7] | EC50 [8] | EC50 [9] | EC50 [10] | EC50 [11]
Cn1cnc(Cn2c(=O)[nH]/c(=N\c3cc4cn(C)nc4cc3Cl)n(Cc3cc(F)c(F)cc3F)c2=O)n1 [Ensitrelvir, reference compound] | 200 ± 40 nM | 210 ± 90 nM | 70 ± 20 nM | 220 ± 90 nM | 540 nM | 140 ± 60 nM | 60 to 220 nM | 60 ± 20 nM |  |  | 
CC(C)(C)[C@H](NC(=O)C(F)(F)F)C(=O)N1C[C@H]2[C@@H]([C@H]1C(=O)N[C@H](C#N)C[C@@H]1CCNC1=O)C2(C)C [Nirmatrelvir, reference compound] | 750 ± 220 nM | 130 ± 20 nM | 50 ± 20 nM | 210 ± 280 nM |  | 300 ± 220 nM | 20 to 750 nM |  | 26 ± 5 nM | 1420 nM | 1300 nM
CC(C)(C)[C@H](NC(=O)C(F)(F)F)C(=O)N1C[C@H]2[C@@H]([C@H]1C(=O)N[C@@H](C[C@@H]1CCNC1=O)C(=O)c1nc3c(F)cccc3s1)C2(C)C [TKB245] | 23 ± 9 nM | 9 ± 1 nM |  | 35 ± 18 nM |  | 27 ± 3 nM | 6 to 38 nM | 6 ± 3 nM |  |  | 
CC(C)(C)[C@H](NC(=O)C(F)(F)F)C(=O)N1C[C@H]2[C@@H]([C@H]1C(=O)N[C@@H](C[C@@H]1CCNC1=O)C(=O)c1nc3cc(F)ccc3s1)C2(C)C [TKB272] | 8 ± 1 nM | 7 ± 1 nM | 3 ± 1 nM | 5 ± 2 nM |  | 6 ± 3 nM | 3 to 8 nM | 3 ± 1 nM | 3 nM | 51.3 nM and 51 nM | 22 nM
CC(C)C(=O)OC[C@H]1O[C@@H](n2ccc(NO)nc2=O)[C@H](O)[C@@H]1O [molnupiravir, reference compound] |  |  |  |  | 750 nM |  |  |  |  |  | 
